Test results reported in the NIST ThermoML archive (doi:10.1021/acs.jced.8b01196).

What was measured:
[1] = refractive index (Na D-line) (dimensionless); settings: 101.33 kPa, Liquid, Standard Abbe refractometry
[2] = Boiling temperature at pressure P; settings: Liquid, Ebulliometric method (Recirculating still)
[3] = Liquid; for vapor or sublimation pressure: Ebulliometric method (Recirculating still); for mass density: 101.33 kPa, Vibrating tube method

CC=O [ethanal]
Settings	Boiling temperature at pressure P [°C]	refractive index	vapor or sublimation pressure [kPa]
[1], 293.15 K	–	1.337	–
[2], 100.68 kPa	20.37	–	–
[2], 105.38 kPa	21.58	–	–
[2], 115.48 kPa	23.93	–	–
[2], 135.54 kPa	28.19	–	–
[2], 150.37 kPa	31.16	–	–
[2], 165.44 kPa	33.89	–	–
[2], 180.92 kPa	36.44	–	–
[2], 195.74 kPa	39	–	–
[2], 200.79 kPa	39.83	–	–
[2], 210.95 kPa	41.10	–	–
[2], 225.32 kPa	43.23	–	–
[2], 240.4 kPa	45.2	–	–
[3], 293.52 K	–	–	100
[3], 304.31 K	–	–	150
[3], 312.98 K	–	–	200

CC(C)=O [acetone]
Settings	Boiling temperature at pressure P [°C]	mass density [kg/m3]	refractive index	vapor or sublimation pressure [kPa]
[1], 293.15 K	–	–	1.359	–
[2], 40.32 kPa	31.47	–	–	–
[2], 50.34 kPa	37.0	–	–	–
[2], 60.36 kPa	41.64	–	–	–
[2], 70.3 kPa	45.74	–	–	–
[2], 80.32 kPa	49.40	–	–	–
[2], 90.34 kPa	52.70	–	–	–
[2], 100.38 kPa	55.74	–	–	–
[2], 120.34 kPa	61.20	–	–	–
[2], 140.53 kPa	65.91	–	–	–
[2], 150.68 kPa	68.4	–	–	–
[2], 160.33 kPa	70.12	–	–	–
[2], 180.53 kPa	73.92	–	–	–
[2], 200.55 kPa	77.42	–	–	–
[2], 220.29 kPa	80.67	–	–	–
[3], 298.15 K	–	785	–	–
[3], 328.89 K	–	–	–	100
[3], 341.5 K	–	–	–	150
[3], 350.57 K	–	–	–	200

CCC(=O)C(C)=O [2,3-pentanedione]
Settings	Boiling temperature at pressure P [°C]	mass density [kg/m3]	refractive index	vapor or sublimation pressure [kPa]
[1], 292.15 K	–	–	1.412	–
[2], 15.33 kPa	58.52	–	–	–
[2], 30.35 kPa	74.90	–	–	–
[2], 45.32 kPa	85.6	–	–	–
[2], 50.34 kPa	88.2	–	–	–
[2], 60.35 kPa	93.66	–	–	–
[2], 65.35 kPa	96.10	–	–	–
[2], 75.35 kPa	100.40	–	–	–
[2], 90.29 kPa	106.11	–	–	–
[2], 100.75 kPa	109.37	–	–	–
[2], 105.45 kPa	111.8	–	–	–
[2], 120.51 kPa	115.89	–	–	–
[2], 135.32 kPa	118.22	–	–	–
[2], 150.5 kPa	122.59	–	–	–
[2], 165.5 kPa	125.8	–	–	–
[2], 180.57 kPa	128.56	–	–	–
[2], 195.59 kPa	129.97	–	–	–
[2], 200.68 kPa	132.47	–	–	–
[3], 292.15 K	–	982	–	–
[3], 382.52 K	–	–	–	100
[3], 395.74 K	–	–	–	150
[3], 405.62 K	–	–	–	200
